These are literature values, as cited in patent publication US6414139B1, “Silicon amphiphilic compounds and the use thereof” (Imarx Therapeutics, Inc., priority 1996, dated 2002).

The conditions of this series: gel state to liquid crystalline state; CRC Handbook of Lipid Bilayers p. 139.

SMILES strings stand for the structures.

Turning to `CCCCCCCCCCCCCCCCCCCCCCC(=O)OC[C@H](COP(=O)([O-])OCC[N+](C)(C)C)OC(=O)CCCCCCCCCCCCCCCCCCCCCC` [1,2-(23:0)], the “Main Phase Transition Temperature” value was 79.5 °C. In the case of `CCCCCCCCCCCCCCCCCCCCCCCC(=O)OC[C@H](COP(=O)([O-])OCC[N+](C)(C)C)OC(=O)CCCCCCCCCCCCCCCCCCCCCCC` [1,2-(24:0)], the “Main Phase Transition Temperature” value was 80.1 °C.
